Among the data in PubChem BioAssay (NCI) are TGI values, retold here.

Some test systems named below: 786-0 renal; A498 renal; A549 NSCLC; ACHN renal; HCT-116 colon; K-562 leukemia; LOX IMVI melanoma; MDA-MB-231 breast; NCI-H226 lung; NCI/ADR-RES ovarian; OVCAR-8 ovarian; SF-295 CNS; SK-MEL-2 melanoma; SK-MEL-28 melanoma; SK-MEL-5 melanoma; SK-OV-3 ovarian; SN12C renal; SNB-19 CNS; UACC-62 melanoma; HL-60(TB) leukemia.
Common to all, as to assay: NCI-60 cell line screen, 48 h

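Assay format: 96-well plates, 48-hour exposure. TGI: total growth inhibition.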 A value given as a limit tells only on which side of the number the result lay.

Regarding `COc1ccc2[nH]c3c(c2c1)CC(=O)N1CCCC(CC3O)C1` (stereo not given), the TGI with 786-0 renal, with A498 renal, in the assay on A549 NSCLC, in the assay with ACHN renal, with HCT-116 colon and with K-562 leukemia was more than 100 µM in each case. Also, the TGI in the assay on LOX IMVI melanoma, in the assay with MDA-MB-231 breast, in the assay on NCI-H226 lung, in the assay with NCI/ADR-RES ovarian, with OVCAR-8 ovarian and in the assay on SF-295 CNS was more than 100 µM each time. For the same compound, the TGI in the assay on SK-MEL-2 melanoma, with SK-MEL-28 melanoma, with SK-MEL-5 melanoma, with SK-OV-3 ovarian, with SN12C renal and in the assay with SNB-19 CNS was more than 100 µM in each case. This compound yielded a TGI in the assay on UACC-62 melanoma of more than 100 µM.
With `O=C(NNC1=NCCCN1)c1ccco1`, the TGI in the assay with 786-0 renal, in the assay with A549 NSCLC, with ACHN renal, with HCT-116 colon, in the assay with HL-60(TB) leukemia and in the assay with K-562 leukemia was more than 100 µM in each case. The TGI in the assay with LOX IMVI melanoma, with MDA-MB-231 breast, in the assay on NCI-H226 lung, in the assay on NCI/ADR-RES ovarian, in the assay on OVCAR-8 ovarian and in the assay with SF-295 CNS was more than 100 µM each time. In addition, the TGI in the assay on SK-MEL-2 melanoma, with SK-MEL-28 melanoma, with SK-MEL-5 melanoma, in the assay with SK-OV-3 ovarian, in the assay with SN12C renal and in the assay on SNB-19 CNS was more than 100 µM throughout. The same compound gave a TGI in the assay with UACC-62 melanoma of more than 100 µM.
As for `CC(=O)OCC1OC(c2c(OC(C)=O)cc(C)c3c(=O)cc(/C(C(C)=O)=C(\C)O)oc23)C(OC(C)=O)C(OC(C)=O)C1OC(C)=O` (stereo not given), the TGI in the assay with 786-0 renal, in the assay with A549 NSCLC, in the assay on ACHN renal, with HCT-116 colon, in the assay with HL-60(TB) leukemia and in the assay with K-562 leukemia was more than 100 µM each time. In addition, the TGI in the assay on MDA-MB-231 breast, with NCI-H226 lung, with NCI/ADR-RES ovarian, with OVCAR-8 ovarian, in the assay on SF-295 CNS and in the assay on SK-MEL-2 melanoma was more than 100 µM each time. Also, the TGI with SK-MEL-28 melanoma, with SK-MEL-5 melanoma, in the assay with SK-OV-3 ovarian, with SN12C renal, in the assay with SNB-19 CNS and in the assay on UACC-62 melanoma was more than 100 µM in each case.
`Cc1ccc(Cc2nn(C)c(=O)n2N)cc1`: the TGI in the assay with 786-0 renal, in the assay on A498 renal, with A549 NSCLC, in the assay on ACHN renal, with HCT-116 colon and in the assay with K-562 leukemia was more than 100 µM in each case. Also, the TGI in the assay on LOX IMVI melanoma, in the assay with MDA-MB-231 breast, in the assay with NCI-H226 lung, in the assay on NCI/ADR-RES ovarian, in the assay on OVCAR-8 ovarian and with SF-295 CNS was more than 100 µM each time. Also, the TGI in the assay on SK-MEL-2 melanoma, with SK-MEL-28 melanoma, in the assay with SK-MEL-5 melanoma, in the assay with SK-OV-3 ovarian, in the assay on SN12C renal and with SNB-19 CNS was more than 100 µM throughout. In the assay with UACC-62 melanoma, the TGI was more than 100 µM.
Turning to `CNC1c2ccccc2C(=O)c2cc3c(cc21)OCCOCCOCCOCCO3` (stereo not given), the TGI was more than 100 µM in the assay with 786-0 renal; more than 100 µM in the assay on A549 NSCLC; more than 100 µM with ACHN renal; more than 100 µM in the assay with HCT-116 colon; 66.6 µM with HL-60(TB) leukemia; more than 100 µM with K-562 leukemia. For the same compound, the TGI in the assay on MDA-MB-231 breast, with NCI/ADR-RES ovarian, in the assay on OVCAR-8 ovarian, in the assay with SF-295 CNS, in the assay on SK-MEL-28 melanoma and in the assay on SK-MEL-5 melanoma was more than 100 µM in each case. Further, the TGI in the assay with SK-OV-3 ovarian, in the assay with SN12C renal and in the assay on SNB-19 CNS was more than 100 µM throughout.
For the compound `Cc1c2c(nc3ccccc13)C(=O)c1cccnc1C2=O`, the TGI with 786-0 renal is more than 100 µM; in the assay with A549 NSCLC, 21.7 µM; in the assay with ACHN renal it was more than 100 µM; in the assay with HCT-116 colon, 18.8 µM; in the assay on HL-60(TB) leukemia it was 41.4 µM; in the assay with K-562 leukemia, more than 100 µM. In addition, the TGI in the assay on LOX IMVI melanoma is 35.2 µM; in the assay on MDA-MB-231 breast, more than 100 µM; in the assay on NCI-H226 lung, more than 100 µM; with NCI/ADR-RES ovarian it was more than 100 µM; with OVCAR-8 ovarian, 77.9 µM; in the assay with SF-295 CNS, 97.1 µM. The TGI in the assay on SK-MEL-28 melanoma is 94.7 µM; in the assay with SK-MEL-5 melanoma, 1.48 µM; in the assay with SK-OV-3 ovarian, more than 100 µM; in the assay on SN12C renal, more than 100 µM; with SNB-19 CNS it was 92.3 µM; in the assay on UACC-62 melanoma, 10.1 µM.
With `CCCCN1C(=O)c2c(Br)sc(Br)c2C1=O`, the TGI with 786-0 renal was more than 100 µM; with A498 renal, more than 100 µM; in the assay with A549 NSCLC it was 70.3 µM; in the assay on ACHN renal, more than 100 µM; in the assay with HCT-116 colon, 65.6 µM; in the assay with K-562 leukemia it was more than 100 µM. The TGI was more than 100 µM in the assay on LOX IMVI melanoma; more than 100 µM in the assay with MDA-MB-231 breast; more than 100 µM in the assay with NCI-H226 lung; 88.2 µM in the assay with NCI/ADR-RES ovarian; more than 100 µM in the assay with OVCAR-8 ovarian; more than 100 µM in the assay on SF-295 CNS. The TGI with SK-MEL-2 melanoma is more than 100 µM; in the assay with SK-MEL-28 melanoma, more than 100 µM; in the assay with SK-MEL-5 melanoma, more than 100 µM; with SK-OV-3 ovarian it was more than 100 µM; with SN12C renal, 95.8 µM; with SNB-19 CNS it was more than 100 µM. This compound displayed a TGI in the assay on UACC-62 melanoma of more than 100 µM.
With `O=[N+]([O-])c1cccc(-c2ncc3c(n2)-c2ccccc2C3)c1`, the TGI in the assay with 786-0 renal, with A549 NSCLC, in the assay with ACHN renal, with HCT-116 colon, in the assay with HL-60(TB) leukemia and with K-562 leukemia was more than 100 µM each time. Also, the TGI with MDA-MB-231 breast, in the assay on NCI-H226 lung, with NCI/ADR-RES ovarian, in the assay on OVCAR-8 ovarian, in the assay with SF-295 CNS and in the assay with SK-MEL-2 melanoma was more than 100 µM in each case. Besides, the TGI in the assay on SK-MEL-28 melanoma was more than 100 µM; with SK-MEL-5 melanoma, more than 100 µM; with SK-OV-3 ovarian it was more than 100 µM; in the assay on SN12C renal, more than 100 µM; in the assay with SNB-19 CNS it was 72.4 µM; in the assay on UACC-62 melanoma, more than 100 µM.
